The subject of the assay is modified version of the GPR119 receptor (94% identity to human receptor). The experiment in a line: cAMP production assay (LANCE cAMP kit, TR-FRET) in HEK-293 cells. The format is cell-based. Conditions: for cAMP production in HEK-293 cells: HEK-293 cells stably expressing modified GPR119, test compounds 0.2 nM to 10 μM, one-hour incubation; for Fold over baseline: increase in cAMP relative to basal levels, agonist activity if 1.5-fold or greater. Summed up: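 Agonist activity meant a 1.5-fold or greater cAMP rise over basal, with levels interpolated from a standard curve after TR-FRET competition read-out. HEK-293 cells with tetracycline-inducible modified GPR119 (1 μg/mL doxycycline overnight) were incubated one hour at ambient temperature with 0.2 nM to 10 μM compound, 0.5% DMSO.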
A general note: Changes in cAMP serve as a functional read-out for many G protein-coupled receptors.

Where a name gives a salt, the structure may show the parent alone.

As for `CC(C)(C)c1nsc(N2CCC(N3CC[C@H](Oc4cc(F)c(S(C)(=O)=O)cc4F)C3=O)CC2)n1` [Example 34, (S)-1-(1-(3-tert-butyl-1,2,4-thiadiazol-5-yl)piperidin-4-yl)-3-(2,5-difluoro-4-(methylsulfonyl)phenoxy)pyrrolidin-2-one], the “cAMP production in HEK-293 cells” value came out at 29.2 nmol and the Fold over baseline turned out to be 4.5.
For the compound `CS(=O)(=O)c1ccc(N[C@H]2CCN(C3CCN(c4nc(C(F)(F)F)ns4)CC3)C2=O)c(F)c1` [Example 90, (S)-3-(2-fluoro-4-(methylsulfonyl)phenylamino)-1-(1-(3-(trifluoromethyl)-1,2,4-thiadiazol-5-yl)piperidin-4-yl)pyrrolidin-2-one], the “cAMP production in HEK-293 cells” value was 8.5 nmol and the Fold over baseline was found to be 2.9.
For `CS(=O)(=O)c1ccc(N[C@H]2CCN(C3CCN(c4nc([C@H](O)CO)ns4)CC3)C2=O)c(F)c1` [Example 25, (S)-1-(1-(3-((S)-1,2-dihydroxyethyl)-1,2,4-thiadiazol-5-yl)piperidin-4-yl)-3-(2-fluoro-4-(methylsulfonyl)phenylamino)pyrrolidin-2-one], in that order: 8.3 nmol and 2.1.
On the same counts, the results for `CC(C)c1nsc(N2CCC(N3CC[C@H](Nc4ccc(S(=O)(=O)C(C)C)cc4F)C3=O)CC2)n1` [Example 8, (S)-3-(2-fluoro-4-(isopropylsulfonyl)phenylamino)-1-(1-(3-isopropyl-1,2,4-thiadiazol-5-yl)piperidin-4-yl)pyrrolidin-2-one] are 37.6 nmol and 4.7.
On the same counts, the results for `CC(C)(C)c1nsc(N2CCC(N3CC[C@H](Oc4ccc(S(C)(=O)=O)cc4F)C3=O)CC2)n1` [Example 35, (S)-1-(1-(3-tert-butyl-1,2,4-thiadiazol-5-yl)piperidin-4-yl)-3-(2-fluoro-4-(methylsulfonyl)phenoxy)pyrrolidin-2-one] are 26.1 nmol and 3.7.
For the compound `Cc1cc(O[C@H]2CCN(C3CCN(c4nc(C(C)C)ns4)CC3)C2=O)c(F)cc1C#N` [Example 64, (S)-5-fluoro-4-(1-(1-(3-isopropyl-1,2,4-thiadiazol-5-yl)piperidin-4-yl)-2-oxopyrrolidin-3-yloxy)-2-methylbenzonitrile], the “cAMP production in HEK-293 cells” value amounted to 30.8 nmol and the Fold over baseline turned out to be 3.5.
As to `CC(C)c1nsc(N2CCC(N3CC[C@@H](Nc4ccc(S(=O)(=O)N(C)C)cc4F)C3=O)CC2)n1` [Example 13, (R)-3-fluoro-4-(1-(1-(3-isopropyl-1,2,4-thiadiazol-5-yl)piperidin-4-yl)-2-oxopyrrolidin-3-ylamino)-N,N-dimethylbenzenesulfonamide], the “cAMP production in HEK-293 cells” value is 25.2 nmol and the Fold over baseline is given as 3.4.
Consider `CC(C)c1nsc(N2CCC(N3CC[C@H](N(C)c4cc(F)c(S(C)(=O)=O)cc4F)C3=O)CC2)n1` [Example 26, (S)-3-((2,5-Difluoro-4-(methylsulfonyl)phenyl)(methyl)amino)-1-(1-(3-isopropyl-1,2,4-thiadiazol-5-yl)piperidin-4-yl)pyrrolidin-2-one], for which the “cAMP production in HEK-293 cells” value came out at 17.2 nmol and the Fold over baseline is 3.9.
Turning to `CC(C)c1nsc(N2CCC(N3CCC(Oc4ccc(C#N)cc4F)C3=O)CC2)n1` (stereo not drawn) [Example 63, 3-Fluoro-4-(1-(1-(3-isopropyl-1,2,4-thiadiazol-5-yl)piperidin-4-yl)-2-oxopyrrolidin-3-yloxy)benzonitrile], the “cAMP production in HEK-293 cells” value worked out at 7.4 nmol and the Fold over baseline is on record as 2.7.
Take `CS(=O)(=O)c1ccc(N[C@H]2CCN(C3CCN(c4nc(-c5ccccc5)ns4)CC3)C2=O)c(F)c1` [Example 24, (S)-3-(2-fluoro-4-(methylsulfonyl)phenylamino)-1-(1-(3-phenyl-1,2,4-thiadiazol-5-yl)piperidin-4-yl)pyrrolidin-2-one]: the “cAMP production in HEK-293 cells” value amounted to 9.7 nmol and the Fold over baseline was determined as 2.6.
Take `CC(C)c1nsc(N2CCC(N3CC[C@H](Nc4ccc(S(=O)(=O)CC5CC5)cc4F)C3=O)CC2)n1` [Example 6, (S)-3-(4-(cyclopropylmethylsulfonyl)-2-fluorophenylamino)-1-(1-(3-isopropyl-1,2,4-thiadiazol-5-yl)piperidin-4-yl)pyrrolidin-2-one]: the “cAMP production in HEK-293 cells” value came out at 23.2 nmol and the Fold over baseline stood at 3.2.
For `CS(=O)(=O)c1cc(F)c(O[C@H]2CCN(C3CCN(c4nnc(C(F)(F)F)s4)CC3)C2=O)cc1F` [Example 96, (S)-3-(2,5-difluoro-4-(methylsulfonyl)phenoxy)-1-(1-(5-(trifluoromethyl)-1,3,4-thiadiazol-2-yl)piperidin-4-yl)pyrrolidin-2-one], the “cAMP production in HEK-293 cells” value was 14.2 nmol and the Fold over baseline was 3.1.
On the same counts, the results for `CC(C)Cc1nsc(N2CCC(N3CC[C@H](Nc4ccc(S(C)(=O)=O)cc4F)C3=O)CC2)n1` [Example 22, (S)-3-(2-fluoro-4-(methylsulfonyl)phenylamino)-1-(1-(3-isobutyl-1,2,4-thiadiazol-5-yl)piperidin-4-yl)pyrrolidin-2-one trifluoroacetate] are 22.1 nmol and 7.6.
As for `CC(C)c1nsc(N2CCC(N3CC[C@H](Nc4ccc(S(C)(=O)=O)c(Cl)c4)C3=O)CC2)n1` [Example 11, (S)-3-(3-chloro-4-(methylsulfonyl)phenylamino)-1-(1-(3-isopropyl-1,2,4-thiadiazol-5-yl)piperidin-4-yl)pyrrolidin-2-one], the “cAMP production in HEK-293 cells” value turned out to be 10.8 nmol and the Fold over baseline is recorded as 3.0.
Take `CCS(=O)(=O)c1ccc(OC2CCN(C3CCN(c4nc(-c5ccccc5)ns4)CC3)C2=O)c(F)c1` (stereo not drawn) [Example 67, 3-(4-(ethylsulfonyl)-2-fluorophenoxy)-1-(1-(3-phenyl-1,2,4-thiadiazol-5-yl)piperidin-4-yl)pyrrolidin-2-one]: the “cAMP production in HEK-293 cells” value is 14.0 nmol and the Fold over baseline was determined as 2.3.
Consider `CS(=O)(=O)c1cc(F)c(OC2CCN(C3CCN(c4nc(C5CC5)ns4)CC3)C2=O)cc1F.O=C(O)C(F)(F)F` (stereo not drawn) [Example 47, 1-(1-(3-Cyclopropyl-1,2,4-thiadiazol-5-yl)piperidin-4-yl)-3-(2,5-difluoro-4-(methylsulfonyl)phenoxy)pyrrolidin-2-one trifluoroacetate], for which the “cAMP production in HEK-293 cells” value is 9.8 nmol and the Fold over baseline amounted to 2.7.
For `CN(C)c1nsc(N2CCC(N3CC[C@H](Oc4cc(F)c(S(C)(=O)=O)cc4F)C3=O)CC2)n1` [Example 55, (S)-3-(2,5-difluoro-4-(methylsulfonyl)phenoxy)-1-(1-(3-(dimethylamino)-1,2,4-thiadiazol-5-yl)piperidin-4-yl)pyrrolidin-2-one], in that order: 17.2 nmol and 3.8.
Turning to `CS(=O)(=O)c1cc(F)c(O[C@H]2CCCN(C3CCN(c4nc(C(F)(F)F)ns4)CC3)C2=O)cc1F` [Example 93, (S)-3-(2,5-difluoro-4-(methylsulfonyl)phenoxy)-1′-(3-(trifluoromethyl)-1,2,4-thiadiazol-5-yl)-[1,4′-bipiperidin]-2-one], the “cAMP production in HEK-293 cells” value came to 9.0 nmol and the Fold over baseline is 2.9.
On the same counts, the results for `CC(C)c1nsc(N2CCC(N3CC[C@H](Oc4cc(F)c(S(C)(=O)=O)cc4F)C3=O)CC2)n1` [Example 52, (S)-3-(2,5-difluoro-4-(methylsulfonyl)phenoxy)-1-(1-(3-isopropyl-1,2,4-thiadiazol-5-yl)piperidin-4-yl)pyrrolidin-2-one] are 24.6 nmol and 3.9.
As for `CCS(=O)(=O)c1ccc(NC2CCN(C3CCN(c4nc(C(C)C)ns4)CC3)C2=O)cc1C` (stereo not drawn) [Example 19, 3-(4-(Ethylsulfonyl)-3-methylphenylamino)-1-(1-(3-isopropyl-1,2,4-thiadiazol-5-yl)piperidin-4-yl)pyrrolidin-2-one], the “cAMP production in HEK-293 cells” value is 16.4 nmol and the Fold over baseline is 2.4.
On the same counts, the results for `CC(C)c1nsc(N2CCC(N3CCC(Cc4ccc(S(C)(=O)=O)cc4)C3=O)CC2)n1` (stereo not drawn) [Example 92, 1-(1-(3-isopropyl-1,2,4-thiadiazol-5-yl)piperidin-4-yl)-3-(4-(methylsulfonyl)benzyl)pyrrolidin-2-one] are 18.4 nmol and 2.8.
On the same counts, the results for `COC(C)(C)c1nsc(N2CCC(N3CC[C@H](Nc4ccc(S(C)(=O)=O)cc4F)C3=O)CC2)n1` [Example 41, (S)-3-(2-fluoro-4-(methylsulfonyl)phenyl-amino)-1-(1-(3-(2-methoxypropan-2-yl)-1,2,4-thiadiazol-5-yl)piperidin-4-yl)pyrrolidin-2-one] are 8.1 nmol and 2.0.
For the compound `CCS(=O)(=O)c1ccc(OC2CCN(C3CCN(c4nc(C)ns4)CC3)C2=O)c(F)c1` (stereo not drawn) [Example 66, 3-(4-(ethylsulfonyl)-2-fluorophenoxy)-1-(1-(3-methyl-1,2,4-thiadiazol-5-yl)piperidin-4-yl)pyrrolidin-2-one], the “cAMP production in HEK-293 cells” value was 8.6 nmol and the Fold over baseline stood at 1.8.
On to `CS(=O)(=O)c1ccc(O[C@H]2CCN(C3CCN(c4nc(Oc5ccccc5)ns4)CC3)C2=O)c(F)c1` [Example 74, (S)-3-(2-fluoro-4-(methylsulfonyl)phenoxy)-1-(1-(3-phenoxy-1,2,4-thiadiazol-5-yl)piperidin-4-yl)pyrrolidin-2-one], for which the “cAMP production in HEK-293 cells” value was found to be 15.3 nmol and the Fold over baseline worked out at 4.2.
